According to patent US20220008398A1 (priority 2018, published 2022):
“Also recorded” adds a separate entry of the source. Where two headings read alike, the source gives them in different places.

Key:
[1] = test system: severe major depressive disorder; settings: 490 patients, daily oral gaboxadol 5 mg or 10 mg added to escitalopram 20 mg; cited from earlier work
[2] = test system: time spent floating (immobility) in forced swim; experiment: Forced swim test; type: in vivo; settings: mouse, single dose 10 mg/kg, 1 hour and 24 hours after drug delivery, vs vehicle treated control group
Description: The forced swim test is a frequently used behavioral protocol with a well-established therapeutic predictability for a broad range of antidepressants including ketamine (Porsolt et al. 1977; Cryan and Mombereau 2004; Cryan et al. 2005; Lucki et al. 2001). In this test the mouse is put in a beaker filled with water and the time spent struggling, swimming and floating is measured, with the time spent floating—when the mouse stops struggling to swim—being used as a behavioral correlate of depression.

[3] = test system: suicidal ideation in major depressive disorder; experiment: Prospective randomized clinical trial of oral gaboxadol versus ketamine in patients at risk of suicide
[4] = test system: sleep onset and sleep maintenance; settings: three-month efficacy study, insomnia; cited from earlier work
[5] = test system: combined delta, theta and alpha activity; settings: 160 minutes after administration; cited from earlier work
[6] = test system: drug-evoked expression of the immediate early gene c-fos, whole mouse brain
Text: A unique and novel approach to preclinical testing of psychiatric drugs is based on the proposition that a direct readout of drug-evoked brain activation or inhibition in an animal is the most relevant preclinical assay, because psychiatric drugs exert their effects via activation or inhibition of specific neural circuits and cell types in the brain. […] The method called “pharmacomapping” (implemented by Certerra, Inc. Farmingdale, N.Y.) is based on a largely automated drug-screening platform that comprises whole-brain detection of drug-evoked neuronal activation represented by drug-evoked expression of the immediate early gene (IEG) c-fos (Herrera and Robertson 1996). Until now, the detection of c-fos as a marker of brain activation has been done by laborious methods of in situ hybridization or immunohistochemistry in brain tissue sections, followed by mounting the sections on microscopic slides, manual imaging, and largely visual quantification. Nevertheless, over the last two decades a number of studies used these methods to test drug-evoked activity in the mouse or rat brain for various psychoactive medications, including antipsychotics, antidepressants, stimulants and anxiolytics (Engber et al., 1998; Kiss, 2018; Salminen et al., 1996; SEMBA et al., 1996; Slattery et al., 2005; Sumner et al., 2004).
In contrast to the older methods, the pharmacomapping method uses automated and standardized whole-brain immunostaining and brain clearing together with advanced microscopy (light-sheet fluorescence microscopy, LSFM), computational (e.g. machine learning) and statistical methods (FIG. 1). The first generation of this platform used serial two-photon tomography (STPT) as a method for imaging and c-fos-GFP mice expressing green fluorescent protein (GFP) under the control of the c-fos promoter (US 20140297199A1).

[7] = gaboxadol group vs ketamine group
[8] = acute single dose 10 mg/kg, 10 mg/kg

Oc1noc2c1CCNC2 [gaboxadol, 4,5,6,7-tetrahydroisoxazolo [5,4-c]pyridine-3-ol]
benefit in treatment of severe major depressive disorder [1]: no additional benefit | time spent floating (immobility) during 6 min forced swim [2]: nearly identical behavioral effect as the ketamine group; also recorded: significantly reduced the time spent in floating (immobility) | day 1 POMS total mood disturbance score [3, 7]: greater improvement in the gaboxadol group compared with the ketamine group | decrease in suicidal ideation at 230 minutes [3, 7]: greater in the gaboxadol group compared with the ketamine group | proportion of responders on the SSI at day 1 [3, 7]: significantly higher in the gaboxadol group than the ketamine group | Cohen's d for the difference in mean group change (SSI) ([3]; gaboxadol group vs ketamine group, baseline to day 1): greater than medium effect size | average SSI score at day 1 ([3]; gaboxadol hydrochloride 0.85 mg/kg oral vs ketamine 0.5 mg/kg infusion, 24 hours): lower in the gaboxadol group compared with the ketamine group | effects in sleep onset and sleep maintenance [4]: failed to show significant effects in sleep onset and sleep maintenance | whole head MEG planar gradiometer increase in combined delta, theta and alpha activity [5]: ≥ +3 | drug-evoked brain activation (pharmacomap) ([6]; 3 mg/kg alone): neither gaboxadol at 3 mg/kg nor ketamine at 6 mg/kg alone evoked any brain activation detectable | drug-evoked brain activation (pharmacomap) [6, 8]: very similar brain activation as ketamine | drug-evoked brain activation (pharmacomap) ([6]; acute single dose 10 mg/kg, listed as Gaboxadol, 10 mg/kg): broad brain activation that is highly similar to that of ketamine

CNC1(c2ccccc2Cl)CCCCC1=O (centres unmarked) [ketamine]
time spent floating (immobility) during 6 min forced swim [2]: significantly decreases the time the drug treated mice spent floating; also recorded: significantly reduced the time spent in floating (immobility) | drug-evoked brain activation (pharmacomap) ([6]; 6 mg/kg alone): neither gaboxadol at 3 mg/kg nor ketamine at 6 mg/kg alone evoked any brain activation detectable | drug-evoked brain activation (pharmacomap) ([6]; acute single dose 5 mg/kg): modest activation | drug-evoked brain activation (pharmacomap) [6, 8]: very robust and broad activation; also recorded: very broad activation pattern | drug-evoked brain activation (pharmacomap) ([6]; acute single dose 100 mg/kg): modest activation
